Reference: article PMC10328743, “5-Nitro-3-(2-(4-phenylthiazol-2-yl)hydrazineylidene)indolin-2-one derivatives inhibit HIV-1 replication by a multitarget mechanism of action” (Frontiers in Cellular and Infection Microbiology, 2023)

Assays:
[1] = molecular target: T1, HIV-1 RT-associated RNase H (Human immunodeficiency virus type 1 group M subtype B, UniProt P04585); experiment: HIV-1 DNA polymerase-independent RNase H activity determination; assay type: biochemical; settings: wt HIV-1 RT; three independent experiments, average ± standard deviation; read-out: RNase H IC50
T1 construct: The 1:1 ratio between the p66/p51 subunits was also verified; His tag (implied only by Ni-NTA IMAC purification); made in house; host or cells: Escherichia coli M15
Method: (§1) Escherichia coli strain M15 containing the p6HRT-prot vector (provided by Stuart Le Grice laboratory (NCI Frederick)) was grown to an optical density at 600 nm of 0.7 and induced with 1.7 mM of isopropyl β-D-1-thiogalactopyranoside (IPTG) for 4 h. Protein purification was carried out with a BioLogic LP system (Bio-Rad, Hercules, CA, USA) using a combination of immobilized metal affinity chromatography (IMAC) and ion exchange chromatography. Cell pellets were resuspended in lysis buffer (50 mM of sodium phosphate buffer, pH 7.8, containing 0.5 mg/mL of lysozyme), incubated on ice for 20 min, and, after the addition of NaCl to a final concentration of 0.3 M, were sonicated and centrifuged at 30,000 ×g for 1 h. The supernatant was loaded onto a Ni^2+-NTA-Sepharose column pre-equilibrated with loading buffer (50 mM of sodium phosphate buffer, pH 7.8, containing 0.3 M of NaCl, 10% glycerol, and 10 mM of imidazole) and washed thoroughly with wash buffer (50 mM of sodium phosphate buffer, pH 6.0, containing 0.3 M of NaCl, 10% glycerol, and 80 mM of imidazole). RT was eluted with an imidazole gradient in the wash buffer (0–0.5 M). Fractions were collected, and protein purity was checked by sodium dodecyl sulfate–polyacrylamide gel electrophoresis (SDS-PAGE) and found to be higher than 90%. The 1:1 ratio between the p66/p51 subunits was also verified. Enzyme-containing fractions were pooled and diluted 1:1 with 50 mM of sodium phosphate buffer, pH 7.0, containing 10% glycerol, and then loaded into a Hi-trap heparin HP GE (Healthcare LifeScience) pre-equilibrated with 10 column volumes of loading buffer (50 mM of sodium phosphate buffer, pH 7.0, containing 10% glycerol, and 150 mM of NaCl). The column was then washed with loading buffer, and the RT was eluted with Elute Buffer 2 (50 mM of sodium phosphate, pH 7.0, 10% glycerol, 1 M of NaCl). Fractions were collected, and the protein was dialyzed and stored in a buffer containing 50 mM of Tris-HCl, pH 7.0, 25 mM of NaCl, 1 mM of EDTA, and 50% glycerol. Catalytic activities and protein concentrations were determined. Enzyme-containing fractions were pooled, and aliquots were stored at −80°C.
HIV RT-associated RNase H activity was measured as described ([Corona et al., 2016b]) in a 100-µl reaction volume containing 50 mM of Tris-HCl buffer, pH 7.8, 6 mM of MgCl2, 1 mM of dithiothreitol (DTT), 80 mM of KCl, 0.25 µM of hybrid RNA/DNA 5′-[…]-Fluorescin-3′ (high-performance liquid chromatography (HPLC), dry, QC: Mass Check) (available from Metabion) 5′-Dabcyl-[…]-3′ (HPLC, dry, QC: Mass Check), increasing concentrations of inhibitors, whose dilution were made in water, and different amounts of enzymes according to a linear range of the dose–response curve. The reaction mixture was incubated for 1 h at 37°C and stopped by the addition of EDTA, and products were measured with a multilabel counter plate reader Victor 3 equipped with filters for 490/528 nm.

HIV-1 RT-associated RDDP = molecular target: T2, HIV-1 RT-associated RDDP (Human immunodeficiency virus type 1 group M subtype B, UniProt P04585); experiment: HIV-1 RNA-dependent DNA polymerase activity determination; assay type: biochemical; settings: wt HIV-1 RT; three independent experiments, average ± standard deviation; read-out: RDDP IC50
T2 construct: The 1:1 ratio between the p66/p51 subunits was also verified; His tag (implied only by Ni-NTA IMAC purification); made in house; host or cells: Escherichia coli M15
Method: as §1
RDDP activity was measured as previously reported in 25-µl volume containing 60 mM of Tris‐HCl buffer, pH 8.1, 8 mM of MgCl2, 60 mM of KCl, 13 mM of DTT, 2.5 µM of poly(A)-oligo(dT), 100 µM of dTTP, increasing concentrations of inhibitors, whose dilution were made in water, and different amounts of enzymes according to a linear range of the dose–response curve. The reaction mixture was incubated for 30 min at 37°C and then stopped by the addition of EDTA. Reaction products were detected by pico green addition and measured with a multilabel counter plate reader Victor 3, equipped with filters for 502/523 nm.

With `O=C1Nc2ccc(Cl)cc2/C1=N/Nc1nc(-c2ccc(Cl)c(Cl)c2)cs1` [9b] the IC50 [1] was 8.8 ± 1.3 µM and the IC50 (HIV-1 RT-associated RDDP) was 24 ± 3 µM.

Work on `Cc1ccc(-c2csc(N/N=C3\C(=O)Nc4ccc([N+](=O)[O-])cc43)n2)cc1` [10a] yielded an IC50 [1] of 8.5 ± 0.5 µM and an IC50 (HIV-1 RT-associated RDDP) of 18 ± 1.5 µM.
